The values below are quoted from earlier work in patent US7847120B2, “Compositions of allosteric hemoglobin modifiers and methods of making the same” (Virginia Commonwealth University Intellectual Property …, priority 2004, dated 2010).

In series [1] the test system is EMT6 mouse mammary tumors. The following applies: efaproxiral plus oxygen breathing, Rockwell and Kelley 1998.
Series [2] concerns mouse fibrosarcoma tumor. The following applies: combination of efaproxiral and radiation relative to radiation alone.
The test system of series [3] is tissue oxygenation. To be noted: in vivo.

For `Cc1cc(C)cc(NC(=O)Cc2ccc(OC(C)(C)C(=O)O)cc2)c1` [efaproxiral, 2-[4-((((3,5-dimethylphenyl)amino)carbonyl)methyl)phenoxy]-2-methyl propionic acid], the “effect of radiation in tumors” value in series [1] (EMT6 mouse mammary tumors) is recorded as “Enhancement of the effect of radiation was observed”. In addition, in series [1] (normal tissues), the “radiation effects in normal tissues” value was “absence of enhanced radiation effects”. In series [2], the tumor growth entry is “reduced”. In series [3], the tissue oxygenation entry was “enhance tissue oxygenation in vivo”.
